Laboratory results taken from patent publication US20080234188A1, “Antimicrobial Peptides” (The Hospital for Sick Children, priority 2001, published 2008).
Converted amounts (≈) assume the structure as drawn. Where a SMILES comes first, the peptide text is derived from it. [ ]: non-standard residue; d: D form.

Key:
E. coli UB1005 = type: cell-based, Escherichia coli; settings: UB1005
How it was run: (§1)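 Growth is scored visually and by absorbance at 600 nm after 18-24 h at 37° C, with a second check at 40-48 h. Bacteria are seeded at 2−7×10^5 CFU/ml in Mueller Hinton broth against twofold peptide dilutions made up in 0.01% acetic acid, 0.2% BSA.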

[1] = tested on: Staphylococcus epidermidis (C621); type: cell-based; settings: C621
How it was run: (§2)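 Broth microdilution in Mueller Hinton Broth, inoculum 2−7×10^5 CFU/ml. Peptides serially doubled in 0.01% acetic acid, 0.2% BSA and added at 10× final concentration. Incubation 37° C for 18-24 h, rechecked at 40-48 h; growth read visually and at 600 nm.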

S. aureus ATCC25923 = type: cell-based, Staphylococcus aureus
Description: (§3) The bacterial strains used were E. coli C498, E. coli C500, Escherichia coli UB1005 and its antibiotic supersusceptible derivative DC2 (22); a clinical isolate of Staphylococcus epidermidis (C621); coryneform bacterial strain Corynebacterium xerosis (C875); and E. coli ATCC 25922, Staphylococcus aureus ATCC 25923, Enterococcus faecalis ATCC 29212, Bacillus subtilis ATCC 6633 and Pseudomonas aeruginosa ATCC 27853, all from American Type Culture Collection.
(§4) Peptide antibacterial activity was assessed by the method of R. Hancock et al. (Wu & Hancock (1999), J. Biol. Chem., v. 274, pp. 29-35). Test strains of bacteria from Mueller Hinton agar (MHA) plates were inoculated into 5 ml Mueller Hinton Broth (MHB) in tubes and grown overnight at 37° C. on a shaker (180 rpm). Serial dilutions of test peptides (at 10 times the required test concentrations) were made in 0.01% acetic acid, 0.2% BSA, in polypropylene or coated glass tubes as follows: the test peptide was (a) dissolved in distilled water at 20 times the required maximum concentration (enough final volume for all tests to be performed on a given day); (b) diluted into an equal volume of 0.02% acetic acid, 0.4% BSA to give 10 times the required maximum concentration; (c) serial doubling dilutions were performed in 0.01% acetic acid, 0.2% BSA to provide serial dilutions of peptides at 10 times the required test concentrations, e.g., 640, 320, 160, . . . 2.5 μg/ml. (No deleterious effects of long-term storage of peptides in these media have been detected). Overnight bacterial cultures were diluted in MHB to give 2−7×10^5 colony forming units/ml. Bacterial suspension (100 μl) was dispensed in each well; controls without bacteria were maintained in parallel. To each well was added 11 μl of 10× test peptide and plates were incubated at 37° C. for 18-24 hours, and checked again at 40-48 hours. Plates were read visually and at 600 nm in a microplate reader (Molecular Devices).
(§5) A further number of the peptides of the invention were tested for antimicrobial activity against a range of Gram-positive and Gram-negative bacteria by the assay described immediately before Example 1.

B. subtilis ATCC6633 = type: cell-based, Bacillus subtilis
Description: as §3, §4, §5

E. faecalis ATCC29212 = type: cell-based, Enterococcus faecalis
Description: as §3, §4, §5

P. aeruginosa ATCC27853 = type: cell-based, Pseudomonas aeruginosa
Description: as §3, §4, §5

E. coli ATCC25922 = type: cell-based
Description: as §3, §4, §5

Rabbit RBC = type: cell-based
Procedure: (§6) Erythrocytes from heparinized rabbit or human blood were washed three times with phosphate-buffered saline (PBS; 5 mM phosphate buffer, 0.14 M saline, pH 7.3), and centrifuged at 1000×g for 15 min at 4° C. The erythrocytes were diluted with PBS to 4% (v/v). Dilutions of the peptides in PBS were plated in 100 μl volumes in microtitre plates (Costar 3790, polypropylene) together with 100μl of the erythrocyte suspension. PBS was used as control and 100% lysis was determined in 0.1% Triton X-100. The plates were incubated at 37° C. for 1 h and then centrifuged at 1000×g for 5 min. 100 μl aliquots of the supernatant were transferred to microtitre plates (Nunc, polystyrene), and the release of hemoglobin was monitored by measurement of the absorbance at 540 nm in a microplate reader. The results are shown in Table 6, for peptide concentrations of […]. With only one or two exceptions, little or no hemolysis was seen.

Human RBC = type: cell-based
Procedure: as §6

[2] = tested on: Corynebacterium xerosis (C875); type: cell-based
How it was run: as §2

E. coli DC2 = assay: Assay of antibacterial activity (MIC), E. coli DC2; type: cell-based, Escherichia coli; settings: Table 5A
How it was run: as §1

Row | SMILES | MIC S. aureus ATCC25923 (S. aureus ATCC25923) | MIC B. subtilis ATCC6633 (B. subtilis ATCC6633) | MIC E. faecalis ATCC29212 (E. faecalis ATCC29212) | Rabbit RBC (% lysis) 50 μM (Rabbit RBC) | Rabbit RBC (% lysis) 200 μM (Rabbit RBC) | MIC E. coli UB1005 (E. coli UB1005) | MIC S. epidermidis C621 [1] | MIC P. aeruginosa ATCC27853 (P. aeruginosa ATCC27853) | MIC E. coli ATCC25922 (E. coli ATCC25922) | Human RBC (% lysis) 50 μM (Human RBC) | Human RBC (% lysis) 200 μM (Human RBC) | MIC C. xerosis C875 [2] | MIC E. coli DC2 (E. coli DC2)
1 | C[C@H](NC(=O)[C@H](C)NC(=O)[C@H](C)NC(=O)[C@H](Cc1c[nH]c2ccccc12)NC(=O)[C@H](Cc1ccccc1)NC(=O)[C@H](C)NC(=O)[C@H](C)NC(=O)[C@H](C)NC(=O)[C@H](C)NC(=O)[C@H](CCCCN)NC(=O)[C@H](CCCCN)NC(=O)[C@H](CCCCN)NC(=O)[C@H](CCCCN)NC(=O)[C@H](CCCCN)NC(=O)[C@@H](N)CCCCN)C(=O)N[C@@H](C)C(=O)N[C@@H](Cc1ccccc1)C(N)=O [KAFW, KKKKKKAAAAFWAAAAF-NH2] (H-KKKKKKAAAAFWAAAAF-NH2; N-terminus assumed) | – | – | – | 0 % lysis | 1 % lysis | 2 µM (≈ 3.67 µg/mL) | 8 µM (≈ 14.7 µg/mL) | 16 µM (≈ 29.4 µg/mL) | 16 µM (≈ 29.4 µg/mL) | 0 % lysis | 0 % lysis | 0.5 µM (≈ 0.918 µg/mL) | 0.5 µM (≈ 0.918 µg/mL)
2 | C[C@H](NC(=O)[C@H](C)NC(=O)[C@H](C)NC(=O)[C@H](Cc1ccccc1)NC(=O)[C@H](C)NC(=O)[C@H](C)NC(=O)[C@H](Cc1c[nH]c2ccccc12)NC(=O)[C@H](C)NC(=O)[C@H](C)NC(=O)[C@H](Cc1ccccc1)NC(=O)[C@H](C)NC(=O)[C@H](C)NC(=O)[C@H](C)NC(=O)[C@H](C)NC(=O)[C@H](C)NC(=O)[C@H](Cc1ccccc1)NC(=O)[C@H](C)NC(=O)[C@H](C)NC(=O)[C@H](C)NC(=O)[C@H](CCCCN)NC(=O)[C@H](CCCCN)NC(=O)[C@H](CCCCN)NC(=O)[C@H](CCCCN)NC(=O)[C@H](CCCCN)NC(=O)[C@@H](N)CCCCN)C(N)=O [Peptide F25-6K] (H-KKKKKKAAAFAAAAAFAAWAAFAAA-NH2; N-terminus assumed) | – | – | – | – | – | 16 µM (≈ 39.7 µg/mL) | 4 µM (≈ 9.92 µg/mL) | 32 µM (≈ 79.4 µg/mL) | 16 µM (≈ 39.7 µg/mL) | 11 % lysis | 17 % lysis | 1 µM (≈ 2.48 µg/mL) | 8 µM (≈ 19.8 µg/mL)
3 | C[C@H](NC(=O)[C@H](C)NC(=O)[C@H](Cc1ccccc1)NC(=O)[C@H](C)NC(=O)[C@H](C)NC(=O)[C@H](Cc1c[nH]c2ccccc12)NC(=O)[C@H](C)NC(=O)[C@H](C)NC(=O)[C@H](Cc1ccccc1)NC(=O)[C@H](C)NC(=O)[C@H](C)NC(=O)[C@H](CCCNC(=N)N)NC(=O)[C@H](CCCNC(=N)N)NC(=O)[C@H](CCCNC(=N)N)NC(=O)[C@H](CCCNC(=N)N)NC(=O)[C@H](CCCNC(=N)N)NC(=O)[C@@H](N)CCCNC(=N)N)C(N)=O [Peptide F17-6R, RRRRRRAAFAAWAAFAA-NH2] (H-RRRRRRAAFAAWAAFAA-NH2; N-terminus assumed) | – | – | – | 1 % lysis | 3 % lysis | 1 µM (≈ 2 µg/mL) | 4 µM (≈ 8.01 µg/mL) | 8 µM (≈ 16 µg/mL) | 4 µM (≈ 8.01 µg/mL) | 14 % lysis | 26 % lysis | 0.5 µM (≈ 1 µg/mL) | 0.5 µM (≈ 1 µg/mL)

Further lines, with some results ahead:

Row | MIC S. aureus ATCC25923 (S. aureus ATCC25923) | MIC B. subtilis ATCC6633 (B. subtilis ATCC6633) | MIC E. faecalis ATCC29212 (E. faecalis ATCC29212) | Rabbit RBC (% lysis) 50 μM (Rabbit RBC) | Rabbit RBC (% lysis) 200 μM (Rabbit RBC) | SMILES | MIC E. coli UB1005 (E. coli UB1005) | MIC S. epidermidis C621 [1] | MIC P. aeruginosa ATCC27853 (P. aeruginosa ATCC27853) | MIC E. coli ATCC25922 (E. coli ATCC25922) | Human RBC (% lysis) 50 μM (Human RBC) | Human RBC (% lysis) 200 μM (Human RBC) | MIC C. xerosis C875 [2] | MIC E. coli DC2 (E. coli DC2)
4 | >32 µM | 16 µM (≈ 28.7 µg/mL) | >32 µM | 0 % lysis | 2 % lysis | C[C@H](NC(=O)[C@H](C)NC(=O)[C@H](Cc1ccccc1)NC(=O)[C@H](C)NC(=O)[C@H](C)NC(=O)[C@H](Cc1ccccc1)NC(=O)[C@H](C)NC(=O)[C@H](C)NC(=O)[C@H](Cc1ccccc1)NC(=O)[C@H](C)NC(=O)[C@H](C)NC(=O)[C@H](CCCCN)NC(=O)[C@H](CCCCN)NC(=O)[C@H](CCCCN)NC(=O)[C@H](CCCCN)NC(=O)[C@H](CCCCN)NC(=O)[C@@H](N)CCCCN)C(N)=O [Peptide 3F17-6K, KKKKKKAAFAAFAAFAA-NH2] (H-KKKKKKAAFAAFAAFAA-NH2; N-terminus assumed) | 2 µM (≈ 3.59 µg/mL) | 8 µM (≈ 14.4 µg/mL) | 16 µM (≈ 28.7 µg/mL) | 16 µM (≈ 28.7 µg/mL) | 0 % lysis | 0 % lysis | – | –
5 | 32 µM (≈ 61.2 µg/mL) | 4 µM (≈ 7.65 µg/mL) | >32 µM | 0 % lysis | 2 % lysis | C[C@H](NC(=O)[C@H](C)NC(=O)[C@H](Cc1c[nH]c2ccccc12)NC(=O)[C@H](C)NC(=O)[C@H](C)NC(=O)[C@H](Cc1c[nH]c2ccccc12)NC(=O)[C@H](C)NC(=O)[C@H](C)NC(=O)[C@H](Cc1c[nH]c2ccccc12)NC(=O)[C@H](C)NC(=O)[C@H](C)NC(=O)[C@H](CCCCN)NC(=O)[C@H](CCCCN)NC(=O)[C@H](CCCCN)NC(=O)[C@H](CCCCN)NC(=O)[C@H](CCCCN)NC(=O)[C@@H](N)CCCCN)C(N)=O [Peptide W17-6K, KKKKKKAAWAAWAAWAA-NH2] (H-KKKKKKAAWAAWAAWAA-NH2; N-terminus assumed) | 1 µM (≈ 1.91 µg/mL) | 8 µM (≈ 15.3 µg/mL) | 8 µM (≈ 15.3 µg/mL) | 8 µM (≈ 15.3 µg/mL) | 0 % lysis | 0 % lysis | – | –
6 | 32 µM (≈ 58.7 µg/mL) | 4 µM (≈ 7.34 µg/mL) | >32 µM | 0 % lysis | 2 % lysis | C[C@@H](NC(=O)[C@@H](C)NC(=O)[C@@H](Cc1ccccc1)NC(=O)[C@@H](C)NC(=O)[C@@H](C)NC(=O)[C@@H](Cc1c[nH]c2ccccc12)NC(=O)[C@@H](C)NC(=O)[C@@H](C)NC(=O)[C@@H](Cc1ccccc1)NC(=O)[C@@H](C)NC(=O)[C@@H](C)NC(=O)[C@@H](CCCCN)NC(=O)[C@@H](CCCCN)NC(=O)[C@@H](CCCCN)NC(=O)[C@@H](CCCCN)NC(=O)[C@@H](CCCCN)NC(=O)[C@H](N)CCCCN)C(N)=O [A11-D F17-6K, kkkkkkaafaawaafaa-NH2] (H-[dK][dK][dK][dK][dK][dK][dA][dA][dF][dA][dA][dW][dA][dA][dF][dA][dA]-NH2) | 0.5 µM (≈ 0.918 µg/mL) | 4 µM (≈ 7.34 µg/mL) | 8 µM (≈ 14.7 µg/mL) | 2 µM (≈ 3.67 µg/mL) | 0 % lysis | 0 % lysis | – | –
